Results from patent publication US20240199546A1, “INHIBITORS OF SOLUTE CARRIER FAMILY 6A MEMBER 19 (SLC6A19) AND METHODS OF USE THEREOF” (Maze Therapeutics, Inc., priority 2022, published 2024).
Counter-ions that a name gives are not always drawn.

Columns and labels:
human SLC6A19 and TMEM27 [1] = molecular target: T1, human SLC6A19 and TMEM27 (Homo sapiens, UniProt Q695T7); experiment: 13C6,15N-isoleucine uptake in CHO cells with doxycycline-inducible expression of human SLC6A19 and TMEM27, RapidFire mass spectrometry (Example B-2); assay type: cell-based; conditions: read-out: SLC6A19_RapidFire Uptake Assay IC50
T1 construct: expressed in transfected cells
T1 sequence (Q695T7 1-634): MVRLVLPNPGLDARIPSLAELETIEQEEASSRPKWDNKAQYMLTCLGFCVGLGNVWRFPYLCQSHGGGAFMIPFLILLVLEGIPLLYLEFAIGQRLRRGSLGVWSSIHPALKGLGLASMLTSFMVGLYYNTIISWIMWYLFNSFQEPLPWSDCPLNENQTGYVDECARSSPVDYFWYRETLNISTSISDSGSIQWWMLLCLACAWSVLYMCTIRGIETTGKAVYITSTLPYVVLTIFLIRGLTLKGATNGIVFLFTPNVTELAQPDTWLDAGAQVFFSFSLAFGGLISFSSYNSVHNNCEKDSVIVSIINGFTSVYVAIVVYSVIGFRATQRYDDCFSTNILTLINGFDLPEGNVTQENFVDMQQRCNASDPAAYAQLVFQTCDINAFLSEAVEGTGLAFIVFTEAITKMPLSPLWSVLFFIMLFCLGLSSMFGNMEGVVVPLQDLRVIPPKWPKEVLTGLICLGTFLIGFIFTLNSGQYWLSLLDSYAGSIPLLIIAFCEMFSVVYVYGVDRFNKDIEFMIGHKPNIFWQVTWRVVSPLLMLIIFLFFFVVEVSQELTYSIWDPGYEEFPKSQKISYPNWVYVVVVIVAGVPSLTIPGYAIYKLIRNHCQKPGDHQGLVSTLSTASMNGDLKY
T1 sequence (Q9HBJ8 15-222 partner): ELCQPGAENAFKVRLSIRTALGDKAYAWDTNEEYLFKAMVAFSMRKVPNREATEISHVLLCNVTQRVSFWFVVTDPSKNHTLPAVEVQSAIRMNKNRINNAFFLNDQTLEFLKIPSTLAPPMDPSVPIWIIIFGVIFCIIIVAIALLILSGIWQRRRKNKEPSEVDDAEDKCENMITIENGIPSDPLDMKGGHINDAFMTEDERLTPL
Method in brief: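 CHO cells induced overnight with doxycycline to express human SLC6A19 plus TMEM27; 20 min preincubation with compound (10-point 2-fold series, duplicate) at 37 °C in HEPES buffer pH 7.2, then 20 min with 13C6,15N-isoleucine. Intracellular label quantified by RapidFire MS against 13C-leucine standard; positive control defined 100% inhibition.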

human SLC6A19 and TMEM27 [2] = molecular target: T1, human SLC6A19 and TMEM27; experiment: Radiolabelled (3H) leucine uptake in CHO cells with doxycycline-inducible expression of human SLC6A19 and TMEM27 (Example B-1); assay type: cell-based; conditions: CHO cells with doxycycline-inducible expression of human SLC6A19 and TMEM27, read-out: SLC6A19_Radioligand Uptake Assay IC50
Method in brief: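 CHO cells were induced with doxycycline for 18 h at 37 °C, washed in HBSS, then exposed to compounds for 1 h: 8-point, 3-fold dilutions in duplicate, 0.5% DMSO final. Uptake measured by scintillation counting after 2 h shaking. Activity normalized with positive control as 0% and DMSO as 100%.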

IC50 (human SLC6A19 and TMEM27 [1]) [nM]	IC50 (human SLC6A19 and TMEM27 [2]) [nM]	SMILES
187	269	CC1(C(=O)NCc2cc3cc(F)c(OCc4cccnc4F)cc3[nH]2)CC1 [Compound 332, N-((5-fluoro-6-((2-fluoropyridin-3-yl)methoxy)-1H-indol-2-yl)methyl)-1-methylcyclopropane-1-carboxamide]
263	345	O=C(NCc1cc2cc(F)c(CCc3ccon3)cc2[nH]1)N1CCCC1 [Compound 603, N-((5-fluoro-6-(2-(isoxazol-3-yl)ethyl)-1H-indol-2-yl)methyl)pyrrolidine-1-carboxamide]
1140	1440	CC(C)(C)C(=O)NCc1cc2cc(Cl)c(OCc3ccon3)cc2[nH]1 [Compound 493, N-((5-chloro-6-(isoxazol-3-ylmethoxy)-1H-indol-2-yl)methyl)pivalamide]
81	158	Cc1cc(CCOc2cc3[nH]c(CNC(=O)C4(C)CC4)cc3cc2Cl)no1 [Compound 99, N-((5-chloro-6-(2-(5-methylisoxazol-3-yl)ethoxy)-1H-indol-2-yl)methyl)-1-methylcyclopropane-1-carboxamide]
41.2	101	O=C(NCc1cc2cc(Cl)c(OCc3ccon3)cc2[nH]1)C1(F)CC1 [Compound 232, N-((5-chloro-6-(isoxazol-3-ylmethoxy)-1H-indol-2-yl)methyl)-1-fluorocyclopropane-1-carboxamide]
59	144	CC1(C(=O)NCc2cc3cc(Cl)c(OCc4cscn4)cc3[nH]2)CC1 [Compound 184, N-((5-chloro-6-(thiazol-4-ylmethoxy)-1H-indol-2-yl)methyl)-1-methylcyclopropane-1-carboxamide]
354	261	CC1(C(=O)NCc2cc3cc(Cl)c(OCc4cc(C(F)F)on4)cc3[nH]2)CC1 [Compound 96, N-((5-chloro-6-((5-(difluoromethyl)isoxazol-3-yl)methoxy)-1H-indol-2-yl)methyl)-1-methylcyclopropane-1-carboxamide]
208	171	CCC(=O)NCc1cc2cc(C)c(OCc3ccon3)cc2[nH]1 [Compound 530, N-((6-(isoxazol-3-ylmethoxy)-5-methyl-1H-indol-2-yl)methyl)propionamide]
93.4	384	O=C(NCc1cc2cc(OC(F)(F)F)c(OCc3cscn3)cc2[nH]1)N1CCCC1 [Compound 415, N-((6-(thiazol-4-ylmethoxy)-5-(trifluoromethoxy)-1H-indol-2-yl)methyl)pyrrolidine-1-carboxamide]
123	167	CC1(C(=O)NCc2cc3cc(F)c(OCc4ccccn4)cc3[nH]2)CC1 [Compound 330, N-((5-fluoro-6-(pyridin-2-ylmethoxy)-1H-indol-2-yl)methyl)-1-methylcyclopropane-1-carboxamide]
71	254	CC1(C(=O)NCc2cc3cc(C(F)(F)F)c(OCc4cscn4)cc3[nH]2)CC1 [Compound 60, 1-methyl-N-((6-(thiazol-4-ylmethoxy)-5-(trifluoromethyl)-1H-indol-2-yl)methyl)cyclopropane-1-carboxamide]
50	100	Cc1cc(COc2cc3[nH]c(CNC(=O)N4CCCC4)cc3cc2Cl)on1 [Compound 83, N-((5-chloro-6-((3-methylisoxazol-5-yl)methoxy)-1H-indol-2-yl)methyl)pyrrolidine-1-carboxamide]
343	244	O=C(NCc1cc2cc(F)c(OCc3ccon3)cc2[nH]1)C1CCC1 [Compound 431, N-((5-fluoro-6-(isoxazol-3-ylmethoxy)-1H-indol-2-yl)methyl)cyclobutanecarboxamide]
3890	977	CNC(=O)NCc1cc2cc(F)c(OCc3cocn3)cc2[nH]1 [Compound 215, 1-((5-fluoro-6-(oxazol-4-ylmethoxy)-1H-indol-2-yl)methyl)-3-methylurea]
1320	450	CC1CCCN1C(=O)NCc1cc2ccc(OCc3ccon3)cc2[nH]1 (stereo not shown) [Compound 124, N-((6-(isoxazol-3-ylmethoxy)-1H-indol-2-yl)methyl)-2-methylpyrrolidine-1-carboxamide]
175	290	O=C(NCc1cc2cc(Cl)c(OCc3cccc(F)n3)cc2[nH]1)N1CCC1 [Compound 402, N-((5-chloro-6-((6-fluoropyridin-2-yl)methoxy)-1H-indol-2-yl)methyl)azetidine-1-carboxamide]
204	157	CC(=O)NCc1cc2cc(Cl)c(NCc3cscn3)cc2[nH]1 [Compound 229, N-((5-chloro-6-((thiazol-4-ylmethyl)amino)-1H-indol-2-yl)methyl)acetamide]
274	210	CC1(C(=O)NCc2cc3ccc(OCc4cccnc4F)cc3[nH]2)CC1 [Compound 98, N-((6-((2-fluoropyridin-3-yl)methoxy)-1H-indol-2-yl)methyl)-1-methylcyclopropane-1-carboxamide formate]
457	304	CC1(C(=O)NCc2cc3cc(Cl)c(CNc4ccon4)cc3[nH]2)CC1 [Compound 608, N-((5-chloro-6-((isoxazol-3-ylamino)methyl)-1H-indol-2-yl)methyl)-1-methylcyclopropane-1-carboxamide]
> 50000	> 9540	CC1(C(=O)NCc2cc3cc(Cl)c(OCc4ccon4)c(Cl)c3[nH]2)CC1 [Compound 346, N-((5,7-dichloro-6-(isoxazol-3-ylmethoxy)-1H-indol-2-yl)methyl)-1-methylcyclopropane-1-carboxamide]
221	172	CC1(C(=O)NCc2cc3ccc(OCc4cccc(F)n4)cc3[nH]2)CC1 [Compound 33, N-((6-((6-fluoropyridin-2-yl)methoxy)-1H-indol-2-yl)methyl)-1-methylcyclopropane-1-carboxamide]
240	397	O=C(NCc1cc2cc(Cl)c(OCc3cscn3)cc2[nH]1)C1CC(F)(F)C1 [Compound 495, N-((5-chloro-6-(thiazol-4-ylmethoxy)-1H-indol-2-yl)methyl)-3,3-difluorocyclobutane-1-carboxamide]
578	386	Cn1ncc(COc2cc3[nH]c(CNC(=O)N4CCCC4)cc3cc2F)n1 [Compound 410, N-((5-fluoro-6-((2-methyl-2H-1,2,3-triazol-4-yl)methoxy)-1H-indol-2-yl)methyl)pyrrolidine-1-carboxamide]
149	210	COc1cc2cc(CNC(=O)C3(C)CC3)[nH]c2cc1CCc1cscn1 [Compound 631, N-((5-methoxy-6-(2-(thiazol-4-yl)ethyl)-1H-indol-2-yl)methyl)-1-methylcyclopropane-1-carboxamide]
502	1430	Cc1cncc(COc2cc3[nH]c(CNC(=O)C4(C)CC4)cc3cc2Cl)c1 [Compound 23, N-((5-chloro-6-((5-methylpyridin-3-yl)methoxy)-1H-indol-2-yl)methyl)-1-methylcyclopropane-1-carboxamide]
50	74	O=C(NCc1cc2cc(Cl)c(OCc3ccon3)cc2[nH]1)C1CC1 [Compound 131, N-((5-chloro-6-(isoxazol-3-ylmethoxy)-1H-indol-2-yl)methyl)cyclopropanecarboxamide]
534	342	O=C(NCc1cc2cc(F)c(OCc3ccno3)cc2[nH]1)N1CCC1 [Compound 401, N-((5-fluoro-6-(isoxazol-5-ylmethoxy)-1H-indol-2-yl)methyl)azetidine-1-carboxamide]
27	70	CC1(C(=O)NCc2cc3cc(Cl)c(OCc4ccco4)cc3[nH]2)CC1 [Compound 66, N-((5-chloro-6-(furan-2-ylmethoxy)-1H-indol-2-yl)methyl)-1-methylcyclopropane-1-carboxamide]
1200	870	CC1CCCN1C(=O)NCc1cc2cc(F)c(OCc3ccon3)cc2[nH]1 (stereo not shown) [Compound 90, N-((5-fluoro-6-(isoxazol-3-ylmethoxy)-1H-indol-2-yl)methyl)-2-methylpyrrolidine-1-carboxamide]
